Patent publication US20160090383A1, “ANTIBACTERIAL PHTHALIDE DERIVATIVES” (priority 2013, published 2016)
≈ marks a conversion by molar mass, not a printed value.

Columns and labels:
Assay in all cases: Bacterial growth minimal inhibitory concentration (microdilution, CLSI M7-A7)
Type in all cases: cell-based
[1] = system: Enterococcus faecium A949; settings: multiply-resistant strain (quinolone-resistant and vancomycin-resistant), cation-adjusted Mueller-Hinton Broth; for MIC: Enterococcus faecium, A949, read-out: MIC for E. faecium A949
Method: (§1) Minimal Inhibitory Concentrations (MICs; […]) were determined in cation-adjusted Mueller-Hinton Broth by a microdilution method following the description given in “Methods for Dilution Antimicrobial Susceptibility Tests for Bacteria that Grow Aerobically”, Approved standard, 7th ed., Clinical and Laboratory Standards Institute (CLSI) Document M7-A7, Wayne, Pa., USA, 2006.

[2] = system: Staphylococcus aureus ATCC29213; settings: methicillin-sensitive and quinolone-sensitive strain, cation-adjusted Mueller-Hinton Broth; for MIC: Staphylococcus aureus, ATCC29213, read-out: MIC for S. aureus ATCC29213
Method: as §1

[3] = system: Streptococcus pneumonia ATTC49619; settings: quinolone-sensitive strain, cation-adjusted Mueller-Hinton Broth; for MIC: Streptococcus pneumoniae, ATTC49619, read-out: MIC for S. pneumonia ATTC49619
Method: as §1

[4] = system: Moraxella catarrhalis A894; settings: quinolone-sensitive strain, cation-adjusted Mueller-Hinton Broth; for MIC: Moraxella catarrhalis, A894
Method: as §1

[5] = system: Staphylococcus aureus A798; settings: multiply-resistant strain (quinolone-resistant and methicillin-resistant), cation-adjusted Mueller-Hinton Broth; for MIC: Staphylococcus aureus, A798, read-out: MIC for S. aureus A798
Method: as §1

Compound | MIC [1] [mg/L] | MIC [2] [mg/L] | MIC [3] [mg/L] | MIC [4] [mg/L] | MIC [5] [mg/L] | MIC for E. faecium A949 [1] [mg/L] | MIC for S. aureus ATCC29213 [2] | MIC for S. pneumonia ATTC49619 [3] [mg/L] | MIC for M. catarrhalis A894 [4] [mg/L] | MIC for S. aureus A798 [5]
O=C(Cn1c(=O)ccc2ccc(F)cc21)NCCC1OC(=O)c2cc(C3=CCCC3)ccc21 (racemic) [Example 23, rac-N-[2-(5-Cyclopent-1-enyl-3-oxo-1,3-dihydro-isobenzofuran-1-yl)-ethyl]-2-(7-fluoro-2-oxo-2H-quinolin-1-yl)-acetamide] | 0.5 (≈ 1.12 µM) | 0.25 (≈ 0.56 µM) | 4 (≈ 8.96 µM) | > 8 | 1 (≈ 2.24 µM) |  |  |  |  | 
O=C(CC1OC(=O)c2cc(-c3cccc(F)c3F)ccc21)NCCn1c(=O)ccc2ccc(F)cc21 (racemic) [Example 8, rac-2-[5-(2,3-Difluoro-phenyl)-3-oxo-1,3-dihydro-isobenzofuran-1-yl]-N-[2-(7-fluoro-2-oxo-2H-quinolin-1-yl)-ethyl]-acetamide] | 0.25 (≈ 0.508 µM) | 0.031 (≈ 0.063 µM) | 0.5 (≈ 1.02 µM) | 0.5 (≈ 1.02 µM) | 0.25 (≈ 0.508 µM) |  |  |  |  | 
rac-5-(2,5-Difluoro-phenyl)-3-oxo-1,3-dihydro-isobenzofuran-1-carboxylic acid [3-(7-fluoro-2-oxo-2H-quinolin-1-yl)-propyl]-amide [Example 20] |  |  |  |  |  | 1 | 0.063 mg/L | 2 | 0.25 | 0.063 mg/L
O=C(CC1OC(=O)c2cc(-c3cccc(F)c3)ccc21)NCCn1c(=O)ccc2ccc(F)cc21 (racemic) [Example 5, rac-N-[2-(7-Fluoro-2-oxo-2H-quinolin-1-yl)-ethyl]-2-[5-(3-fluoro-phenyl)-3-oxo-1,3-dihydro-isobenzofuran-1-yl]-acetamide] | 0.25 (≈ 0.527 µM) | 0.063 (≈ 0.133 µM) | 0.5 (≈ 1.05 µM) | 1 (≈ 2.11 µM) | 0.25 (≈ 0.527 µM) |  |  |  |  | 
O=C1OC(CCNCCn2c(=O)ccc3ccc(F)cc32)c2ccc(-c3ccccc3)cc21 (racemic) [Example 3, rac-7-Fluoro-1-{2-[2-(3-oxo-5-phenyl-1,3-dihydro-isobenzofuran-1-yl)-ethylamino]-ethyl}-1H-quinolin-2-one] | 0.25 (≈ 0.565 µM) | 0.031 (≈ 0.0701 µM) | 0.125 (≈ 0.282 µM) | 1 (≈ 2.26 µM) | 0.125 (≈ 0.282 µM) |  |  |  |  | 
O=C1OC(CCNCCn2c(=O)ccc3ccc(F)cc32)c2ccc(-c3ccc(F)cc3F)cc21 (racemic) [Example 15, rac-1-(2-{2-[5-(2,4-Difluoro-phenyl)-3-oxo-1,3-dihydro-isobenzofuran-1-yl]-ethylamino}-ethyl)-7-fluoro-1H-quinolin-2-one] | 0.5 (≈ 1.04 µM) | 0.25 (≈ 0.522 µM) | 0.5 (≈ 1.04 µM) | 4 (≈ 8.36 µM) | 1 (≈ 2.09 µM) |  |  |  |  | 
O=C(CC1OC(=O)c2cc(C3=CCCCC3)ccc21)NCCn1c(=O)ccc2ccc(F)cc21 (racemic) [Example 16, rac-2-(5-Cyclohex-1-enyl-3-oxo-1,3-dihydro-isobenzofuran-1-yl)-N-[2-(7-fluoro-2-oxo-2H-quinolin-1-yl)-ethyl]-acetamide] | 0.25 (≈ 0.543 µM) | ≤ 0.016 | 0.5 (≈ 1.09 µM) | 0.5 (≈ 1.09 µM) | 0.063 (≈ 0.137 µM) |  |  |  |  | 
O=C(Cn1c(=O)ccc2ccc(F)cc21)NCCC1OC(=O)c2cc(-c3cc(F)cc(F)c3)ccc21 (racemic) [Example 24, rac-N-{2-[5-(3,5-Difluoro-phenyl)-3-oxo-1,3-dihydro-isobenzofuran-1-yl]-ethyl}-2-(7-fluoro-2-oxo-2H-quinolin-1-yl)-acetamide] | 0.5 (≈ 1.02 µM) | 0.125 (≈ 0.254 µM) | 2 (≈ 4.06 µM) | 0.5 (≈ 1.02 µM) | 0.5 (≈ 1.02 µM) |  |  |  |  | 
O=C(CC1OC(=O)c2cc(C3=CCCC3)ccc21)NCCn1c(=O)ccc2ccc(F)cc21 (racemic) [Example 12, rac-2-(5-Cyclopent-1-enyl-3-oxo-1,3-dihydro-isobenzofuran-1-yl)-N-[2-(7-fluoro-2-oxo-2H-quinolin-1-yl)-ethyl]-acetamide] | 0.25 (≈ 0.56 µM) | 0.031 (≈ 0.0694 µM) | 2 (≈ 4.48 µM) | 1 (≈ 2.24 µM) | 0.25 (≈ 0.56 µM) |  |  |  |  | 
O=C(CC1OC(=O)c2cc(-c3cc(F)ccc3F)ccc21)NCCn1c(=O)ccc2ccc(F)cc21 (racemic) [Example 9, rac-2-[5-(2,5-Difluoro-phenyl)-3-oxo-1,3-dihydro-isobenzofuran-1-yl]-N-[2-(7-fluoro-2-oxo-2H-quinolin-1-yl)-ethyl]-acetamide] | 0.25 (≈ 0.508 µM) | 0.031 (≈ 0.063 µM) | 0.25 (≈ 0.508 µM) | 0.125 (≈ 0.254 µM) | 0.125 (≈ 0.254 µM) |  |  |  |  | 
O=C(CC1OC(=O)c2cc(-c3ccccc3)ccc21)NCCn1c(=O)ccc2ccc(F)cc21 (racemic) [Example 4, rac-N-[2-(7-Fluoro-2-oxo-2H-quinolin-1-yl)-ethyl]-2-(3-oxo-5-phenyl-1,3-dihydro-isobenzofuran-1-yl)-acetamide] | 0.5 (≈ 1.1 µM) | 0.125 (≈ 0.274 µM) | 1 (≈ 2.19 µM) | 8 (≈ 17.5 µM) | 0.5 (≈ 1.1 µM) |  |  |  |  | 
CC(C)=Cc1ccc2c(c1)C(=O)OC2CC(=O)NCCn1c(=O)ccc2ccc(F)cc21 (racemic) [Example 17, rac-N-[2-(7-Fluoro-2-oxo-2H-quinolin-1-yl)-ethyl]-2-[5-(2-methyl-propenyl)-3-oxo-1,3-dihydro-isobenzofuran-1-yl]-acetamide] | 0.063 (≈ 0.145 µM) | ≤ 0.016 | 0.5 (≈ 1.15 µM) | 0.5 (≈ 1.15 µM) | ≤ 0.016 |  |  |  |  | 
N—((R)-9-Fluoro-4-oxo-1,2-dihydro-4H-pyrrolo[3,2,1-ij]quinolin-1-ylmethyl)-2-((R)-3-oxo-5-phenyl-1,3-dihydro-isobenzofuran-1-yl)-acetamide and N—((R)-9-Fluoro-4-oxo-1,2-dihydro-4H-pyrrolo[3,2,1-ij]quinolin-1-ylmethyl)-2-((S)-3-oxo-5-phenyl-1,3-dihydro-isobenzofuran-1-yl)-acetamide [Example 1] |  |  |  |  |  | 0.125 | ≦0.016 mg/L | 0.125 | 0.25 | ≦0.016 mg/L
(S)-9-Fluoro-1-[3-((R)-3-oxo-5-phenyl-1,3-dihydro-isobenzofuran-1-yl)-propylamino]-1,2-dihydro-pyrrolo[3,2,1-ij]quinolin-4-one and (S)-9-Fluoro-1-[3-((S)-3-oxo-5-phenyl-1,3-dihydro-isobenzofuran-1-yl)-propylamino]-1,2-dihydro-pyrrolo[3,2,1-ij]quinolin-4-one [Example 7] |  |  |  |  |  | 0.125 | 0.031 mg/L | 0.125 | 2 | 0.125 mg/L
(S)-3-Oxo-5-phenyl-1,3-dihydro-isobenzofuran-1-carboxylic acid [2-((R)-9-fluoro-4-oxo-1,2-dihydro-4H-pyrrolo[3,2,1-ij]quinolin-1-ylamino)-ethyl]-amide and (S)-3-Oxo-5-phenyl-1,3-dihydro-isobenzofuran-1-carboxylic acid [2-((R)-9-fluoro-4-oxo-1,2-dihydro-4H-pyrrolo[3,2,1-ij]quinolin-1-ylamino)-ethyl]-amide [Example 14] |  |  |  |  |  | 0.5 | 0.125 mg/L | 2 | 4 | 0.125 mg/L
O=C(CC1OC(=O)c2cc(-c3ccccc3F)ccc21)NCCn1c(=O)ccc2ccc(F)cc21 (racemic) [Example 6, rac-N-[2-(7-Fluoro-2-oxo-2H-quinolin-1-yl)-ethyl]-2-[5-(2-fluoro-phenyl)-3-oxo-1,3-dihydro-isobenzofuran-1-yl]acetamide] | 0.25 (≈ 0.527 µM) | 0.063 (≈ 0.133 µM) | 0.5 (≈ 1.05 µM) | 2 (≈ 4.22 µM) | 0.25 (≈ 0.527 µM) |  |  |  |  | 
O=C(Cn1c(=O)ccc2ccc(F)cc21)NCCC1OC(=O)c2cc(-c3cc(F)ccc3F)ccc21 (racemic) [Example 19, rac-N-{2-[5-(2,5-Difluoro-phenyl)-3-oxo-1,3-dihydro-isobenzofuran-1-yl]-ethyl}-2-(7-fluoro-2-oxo-2H-quinolin-1-yl)-acetamide] | 0.25 (≈ 0.508 µM) | 0.063 (≈ 0.128 µM) | 0.5 (≈ 1.02 µM) | 0.25 (≈ 0.508 µM) | 0.125 (≈ 0.254 µM) |  |  |  |  | 
O=C(Cn1c(=O)ccc2ccc(F)cc21)NCCC1OC(=O)c2cc(-c3ccccc3)ccc21 (racemic) [Example 18, rac-2-(7-Fluoro-2-oxo-2H-quinolin-1-yl)-N-[2-(3-oxo-5-phenyl-1,3-dihydro-isobenzofuran-1-yl)-ethyl]-acetamide] | 0.5 (≈ 1.1 µM) | 0.25 (≈ 0.548 µM) | 4 (≈ 8.76 µM) | > 8 | 2 (≈ 4.38 µM) |  |  |  |  | 
O=C(CC1OC(=O)c2cc(-c3ccc(F)c(F)c3)ccc21)NCCn1c(=O)ccc2ccc(F)cc21 (racemic) [Example 10, rac-2-[5-(3,4-Difluoro-phenyl)-3-oxo-1,3-dihydro-isobenzofuran-1-yl]-N-[2-(7-fluoro-2-oxo-2H-quinolin-1-yl)-ethyl]-acetamide] | 2 (≈ 4.06 µM) | 0.5 (≈ 1.02 µM) | 4 (≈ 8.12 µM) | > 8 | > 8 |  |  |  |  | 
